From patent US11135186B2, “Regulators of the endoplasmic reticulum proteostasis network” (The Scripps Research Institute, priority 2015, dated 2021) come the findings set out here.

One data set concerns ^FTTTR^WT. Kind of data set: [35S] metabolic labeling, secretion of flag-tagged TTR^WT from HepG2^ATF6 cells. Format: cell-based. The note with it: 15 h pretreatment, 10 μM compound or 1 μM Tg, 4 h chase. The method, then:
HepG2 cells or HEK293T cells plated on poly-D-lysine coated plates were metabolically labeled in DMEM-Cys/-Met (CellGro) supplemented with glutamine, penicillin/streptomycin, dialyzed fetal bovine serum, and EasyTag EXPRESS^35S Protein Labeling Mix (Perkin Elmer) for 30 min. Cells were washed twice with complete media and incubated in prewarmed DMEM for the indicated times. Media or lysates were harvested at the indicated times. Lysates were prepared in RIPA buffer with fresh protease inhibitor cocktail (Roche). FLAG tagged TTR variants or ALLC were immunopurified using M1 anti-FLAG agarose beads (Sigma-Aldrich) and washed three times with RIPA buffer. The immunoisolates were then eluted by boiling in Laemmli buffer and separated on SDS-PAGE. For total secreted media, 15 uL aliquots from media incubated for 4 hrs on pulsed cells were run on a SDS-PAGE. The gels were then dried, exposed to phosphorimager plates (GE Healthcare), and imaged with a Typhoon imager. Band intensities were quantified by densitometry in ImageQuant. Fraction secreted was calculated using the equation: fraction secreted=[extracellular [^35S]-LC signal at t=t/(extracellular [^35S]-LC signal at t=0+intracellular [^35S]-LC signal at t=0)]. Fraction remaining was calculated using the equation: [(extracellular [^35S]-LC signal at t=t+intracellular [^35S]-LC signal at t=t)/(extracellular [^35S]-LC signal at t=0+ intracellular [^35S]-LC signal at t=0)].

Data set [1] relates to XBP1-RLuc reporter (IRE1/XBP1s arm of the UPR). Kind of data set: XBP1-RLuc splicing reporter, 1536-well screen in HEK293T-Rex cells. Format: cell-based. To be noted: % Tg (500 nM) activation, triplicate confirmation screen at 6.8 μM, 18 h. From the text:
To evaluate the selectivity of our screening hits for ATF6, we employed an alternative luciferase reporter to measure activation of the IRE1/XBP1s arm of the UPR. This reporter contains Renilla luciferase (RLuc) expressed out of frame downstream of the XBP1 splice site, preventing RLuc translation in the absence of stress (FIG. 2b)^36,37. In response to IRE1 activation, the 26-nt XBP1 intron is removed, producing a frame shift that allows for RLuc translation and activity. Robust dose-dependent activation of the XBP1-RLuc reporter upon addition of the ER stressors Tg and Tm was confirmed in HEK293T-Rex cells stably expressing the XBP1-RLuc reporter, producing a Z′ score of 0.75 for Tg.
HEK293T-Rex cells incorporating either the ERSE-FLuc or XBP1s-RLuc reporters were collected by trypsinization and resuspended at a density of 500,000 cells per mL. The assay was started by dispensing 5 μL of cell suspension into each well of white, solid-bottom 1536-well plates using a flying reagent dispenser (FRD) and placed into an online incubator 3 h. Cells were then treated with 34 nL/well of either test compounds to give final concentrations of 6.8 μM, DMSO (Low control, final concentration 0.68%, 0% activation) or […] of Delta-7 thapsigargin (High control, final concentration 500 nM, 100% activation). Plates were incubated for 18 h at 37° C., removed from the incubator and equilibrated to room temperature for 10 min. Luciferase activity was detected by addition of 5 μL of ONE-Glo reagent (Promega) to each well. After a 10 min incubation time, light emission was measured with the ViewLux reader (PerkinElmer). The percent activation of each test compound was calculated as follows: % Activation=100*(Test Compound−Median Low Control)/(Median High Control ˜Median Low Control).

The subject of the next data set is HepG2 cells. Kind of data set: HepG2 viability (CellTiter-Glo). In kind it is cell-based. The method, then: HepG2 cells were plated at 5,000 cells/well in a translucent, flat-bottomed 96 well plate, and treated for 48 hr with vehicle, 10 μM Tg or 10 μM ER proteostasis regulator. ALMC-2 or KAS-6/1 cells were plated at 33,000 cells/well in 96-well plates then treated with proteostasis regulators for 16 h as described. Cell metabolic activity was measured using the CellTiter-Glo assay (Promega), which reports on intracellular ATP concentration. CellTiter-Glo reagent was added to cell culture media at a 1:1 ratio and incubated for 2 minutes on an orbital shaker to induce cell lysis. The plate was then incubated at room temperature for 10 minutes to stabilize the luminescent signal and read on a Tecan F200 Pro microplate reader.
A general note: In ATP-based viability assays light output follows the ATP content of the culture.

Data set [2] concerns BiP expression in HepG2 cells. Kind of data set: BiP qPCR in HepG2 cells. Format: cell-based. The procedure: Cells were treated as described at 37° C., washed with Dulbecco's phosphate-buffered saline (Gibco), and then RNA was extracted using the RNeasy Mini Kit (Qiagen). qPCR reactions were performed on cDNA prepared from 500 ng of total cellular RNA using the QuantiTect Reverse Transcription Kit (Qiagen). The FastStart Universal SYBR Green Master Mix (Roche), cDNA, and appropriate human primers^4 or mouse primers (BiP; […] (SEQ ID NO: 5) and […] (SEQ ID NO: 6) purchased from Integrated DNA Technologies were used for amplifications (45 cycles of 1 min at 95° C., 10 s at 95° C., 30 sec at 60° C.) in an ABI 7900HT Fast Real Time PCR machine. Primer integrity was assessed by a thermal melt to confirm homogeneity and the absence of primer dimers. Transcripts were normalized to the housekeeping gene Rplp2 and all measurements were performed in triplicate. Data were analyzed using the RQ Manager and DataAssist 2.0 softwares (ABI).
Background: In qPCR the cycle at which signal appears reflects the starting amount.

The test system of data set [3] is ALLC interaction with BiP and GRP94. Kind of data set: In situ cross-linking and ALLC co-immunopurification in ALMC-2 cells. Format: cell-based, human. The note with it: 10 μM, 16 h, cross-linking. The procedure: For immunoprecipitations, cells were washed with PBS then cross-linked with 0.5 mM Dithiobis(succinimidyl propionate) (DSP) for 30 min at room temperature. The reaction was quenched by addition of 100 mM Tris pH 7.5, then RIPA buffer was added to the cell pellets for lysis. Lysates were cleared by centrifugation at centrifuged at 10000×g for 15 min. Proteins were immunopurified using sheep polyclonal free λ LC antibody (Bethyl Laboratories A80-127A) that was covalently conjugated to CNBr-activated Sepharose 4B (GE Healthcare). After four washes in RIPA buffer, proteins were eluted by boiling in Laemmli buffer+100 mM DTT and samples were separated by SDS-PAGE and transferred to nitrocellulose membranes. Blots were probed with the following primary antibodies: monoclonal mouse M2 anti-FLAG (1:500, Sigma), polyclonal rabbit anti-TTR (1:1000, Dako), rabbit polyclonal anti-human lambda light chain (1:1000, Bethyl Laboratories A90-112A), mouse monoclonal anti-Grp78 (1:500, Santa Cruz Biotechnology sc-166490), rabbit polyclonal anti-Grp94 (1:1000, GeneTex GTX103203), rabbit polyclonal anti-PDIA4 (1:1000, Protein Tech Group 14712-1-AP), mouse monoclonal anti-ATF6a (1-7) (BioAcademia, 1:1000), rabbit anti-phospho eIF2α (CellSignaling #9721, 1:500), mouse anti-eIF2α (Abcam ab5369, 1:1000) and mouse monoclonal anti β-actin (1:10000, Sigma).

With `Cc1ccc(O)c(N/C=C/C(=O)c2ccc(F)cc2)c1` [Compound 132], the “^FTTTR^WT secretion (in words)” value in the data set with ^FTTTR^WT is on record as “did not significantly influence”. In data set [1], the “% XBP1-RLuc activation” value was 10.3 ± 7.9%. The HepG2 viability result in the data set with HepG2 cells (10 μM) was “do not significantly influence”; with HepG2 cells (100 μM), “reduce”. Moreover, the “expression of the ATF6-target gene BiP in HepG2 cells” value (“expression” for short) in data set [2] was “induced”. For the same molecule, the “ALLC interaction with BiP and GRP94” value in data set [3] is on record as “increased”.

`Cc1ccc(O)c(NC(=O)CCc2ccccc2)c1` [Compound 147]: the “^FTTTR^WT secretion (in words)” value with ^FTTTR^WT was “did not significantly influence”. In addition, the “% XBP1-RLuc activation” value in data set [1] is reported as 17.5 ± 1.9%. The HepG2 viability entry with HepG2 cells (10 μM) is recorded as “do not significantly influence”; in the data set with HepG2 cells (100 μM), “reduce”. Further, the “expression” value in data set [2] is “induced”. In addition, the “ALLC interaction with BiP and GRP94” value in data set [3] was “increased”.

Regarding `O=[N+]([O-])c1ccc(N/N=C/c2ccccc2O)cc1` [Compound 263], the “^FTTTR^WT secretion (in words)” value in the data set on ^FTTTR^WT is reported as “did not significantly influence”. Further, the “% XBP1-RLuc activation” value in data set [1] is listed as 2.4 ± 1.0%. Further, the HepG2 viability result was “do not significantly influence” in the data set with HepG2 cells (10 μM) and “reduce” with HepG2 cells (100 μM). Also, the “expression” value in data set [2] is listed as “induced”. Besides, the “ALLC interaction with BiP and GRP94” value in data set [3] is recorded as “unchanged”.
